Results from a melting point compilation (Tetko et al.; mined from patent text by program, amines drawn as free bases though some values may be those of a salt).

Structure (SMILES) | melting point
Cc1ccc2c(=O)[nH]sc2n1 | 187 to 190 °C
CCCc1nc(Nc2cccc(C(C)C)c2)nc(NC2CCN(S(C)(=O)=O)CC2)n1 | 80.4 to 81.8 °C
COc1ccc(O)c(CSc2nc(C)cn2C)c1 | 111 to 112 °C
CC12CCC3C(CC=C4CCCCC43C)C1CC(F)C2=O (stereo not given) | 228 to 230 °C
CCn1cc(C(=O)O)c(=O)c2cc(F)c(-c3csc(CN)n3)c(NC)c21 | 194 to 195 °C
C=C(c1cn(-c2c(Cl)cc(C(F)(F)F)cc2Cl)nc1C#N)C(F)(F)C(F)(F)C(F)(F)F | 109 to 110 °C
O=C(CSCCCOc1ccccc1)NNC(=O)c1ccc(O)cc1 | 146 to 151 °C
CC(=O)OCc1cccc(-n2cccc2)c1Br | 84 to 86.5 °C
CC(C)C/C(=C/CCNC(=O)OCc1ccccc1)C(=O)O | 70 to 71 °C
COC(=O)c1ccc2scc(Br)c2c1 | 93 to 94 °C
CCCCC1CCC2NC(=O)C(=O)C2C1 (stereo not given) | 112 to 113 °C
CN(Cc1ccc(NC(=O)C2=Cc3cc(Br)ccc3N(C=O)CC2)cc1)C1CCOCC1 | 173 to 175 °C
Nc1ccc2ccc(O)cc2c1 | 186 to 188 °C
C=CCN(CC=C)NC(=S)Nc1ccc(F)cc1 | 73 to 74 °C
CN1CCCC(c2nc3cccnc3[nH]2)C1 (stereo not given) | 141 to 144 °C
Nc1ccc2ccc(N)nc2n1 | 222 to 223 °C
O=C(CCC(=O)N1CCC(c2ccc(Cl)cc2)CC1)c1ccc2c(c1)CCN(CCn1cccc1)CC2 | 96 to 97 °C
Cc1cccc2c(-c3ccc(C(F)(F)F)cc3)onc12 | 118 to 119 °C
Cc1ccc(-n2cc(CCCO)c(C(C)C)n2)nc1 | 82 to 83 °C
Nc1cc(-n2c(=O)oc3c(c2=O)CCC3)c(F)cc1Cl | 93 °C
CN(C(=O)COc1nc2c(F)cccc2s1)c1ccccc1 | 94 °C

Structure (SMILES) | melting point
O=C1NC(=O)C2(CCNCC2)N1Cc1ccccc1 | 195 to 196 °C
O=[N+]([O-])c1ccc(CNc2cccc(S(=O)(=O)O)c2)cc1 | > 275 °C
O=[N+]([O-])c1ccc2c(c1)COCC2 | 96 to 98 °C
O=C(c1ccccc1)c1ccc(SC(Cl)(Cl)Cl)cc1 | 62 to 63 °C
COc1cccc(NC(=S)Nc2cscc2C)c1N | 148 to 153 °C
COC(=O)C(Cc1ccc(-c2cccc(CNCC(=O)c3ccccc3)c2)cc1)Nc1ccccc1C(=O)c1ccccc1 (stereo not given) | 75 °C
C=C(CCC(C)C1CCC2C3=C(C(=O)CC21C)C1(C)CCC(=O)C(C)C1CC3O)C(C)C(=O)O (stereo not given) | 196 to 198 °C
Cc1cc2c(cc1C)OCCC(C(=O)O)=C2 | 266 to 267 °C
CCCCc1ncc([N+](=O)[O-])c(O)n1 | 67 to 69 °C
O=C(O)c1cc2c(Cl)ncnc2s1 | > 265 °C
CC1(C)NC(=O)N(CC(O)Cc2cc(C(C)(C)C)c(O)c(C(C)(C)C)c2)C1=O (stereo not given) | 175 to 176 °C
Cc1ccc2c(c1)c(=O)c(CO)cn2C | 171 to 173 °C
Clc1ccc(Cn2ccc3cc(OCc4nnn[nH]4)ccc32)cc1 | 162 to 163 °C
O=Cc1cccn1-c1ccc(C(F)(F)F)cc1Cl | 119 to 120 °C
O=C(NCC(F)(F)F)c1ccc(C2=NOC(c3cc(Cl)cc(Cl)c3)(C(F)(F)F)C2)cc1 (stereo not given) | 94 to 96 °C
CCCC1(C(=O)NCc2ccc(N3Cc4ccccc4C3=O)cc2)c2ccccc2-c2ccccc21 | 96 to 99 °C
O=c1ccn(C2OC(CO)C(O)C2Br)c(=O)[nH]1 (stereo not given) | 194 to 195 °C
Cc1nc(CO)sc1-c1ccnc(Nc2ccc(N3CCCCC3)cc2)n1 | 194 to 195 °C
CC(=O)Nc1ccc2c(c1)CN(C)CC2 | 157 to 159 °C
Nc1cccc(C2CN3CCSC3=N2)c1 (stereo not given) | 177 to 179 °C
Cn1cc(O)c(=O)c2ccc(OCC(F)(F)F)cc21 | 151 °C

Structure (SMILES) | melting point
N#CCCNC(=O)c1cccc(-c2cccc3nn(Cc4cccc(C(F)(F)F)c4)cc23)n1 | 178 to 179 °C
O=Cc1ccc(CCCCCCCC(=O)O)o1 | 70 to 72 °C
N#CCCNC1CCCC1 | 81 to 84 °C
Clc1ccc2nc(NC3=NCCN3)[nH]c2c1 | 241 to 242 °C
O=C(O)C(=O)Nc1cccc(NC(=O)C(=O)O)n1 | > 310 °C
Nc1c2c(nc3cc(Cl)ccc13)CCCC2=O | 285 to 287 °C
NC(=O)c1ccccc1NC(=O)c1ccc(-n2nc(C(F)(F)F)cc2C(F)(F)F)cc1 | 195 to 196 °C
O=c1[nH]cnc2c(Br)c(Cl)sc12 | > 280 °C
CC(CC1CCNCC1)c1c[nH]c2ccccc12 (stereo not given) | 125 °C
NC(=O)Cc1ccc(OCC(O)CNCCCCn2cnc3ccccc32)cc1 (stereo not given) | 119 to 123 °C
CCOC(=O)c1cn(Cc2ccccc2)nc1OCc1ccc(OCc2nc(-c3ccco3)oc2C)nc1 | 140 to 141 °C
CC(NC(=O)C(O)c1cc(F)cc(F)c1)C(=O)NC1C(=O)N(C)c2ccccc2N(c2ccccc2)C1=O (stereo not given) | 212 to 213 °C
c1ccc2[nH]c(CCC(CCCc3[nH]c4ccccc4c3CCN3CCCCC3)CCN3CCCCC3)cc2c1 (stereo not given) | 79 to 83 °C
COc1ccc(N2c3ccccc3CCC2c2ccccc2)cc1 (stereo not given) | 88 to 90 °C
COCC(=O)c1c(Cl)ccc(F)c1Cl | 36.7 to 39.4 °C
ClCCCCc1nnnn1C1CCCCC1 | 50 to 51 °C
CCc1ccc2c(c1)C(=O)c1ccc(-c3nnn[nH]3)cc1S2(=O)=O | 239 °C
CCOC(Cc1ccc(OCCN2c3ccccc3Sc3ccccc32)cc1)C(=O)O (stereo not given) | 106 to 113 °C
Nc1c([N+](=O)[O-])sc2cccc(Cl)c12 | 174 to 175 °C
NC(=NOCC1CC1)c1c(C(F)(F)F)ccc(C(F)(F)F)c1Cl | 75 to 80 °C

Results, then the molecule that gave them:

melting point | Structure (SMILES)
146 to 148 °C | CC(C)(C)c1ccc(S(=O)(=O)Nc2ncnc(OCCO)c2Br)cc1
135 to 138 °C | CCCCOCCOc1ccc(-c2ccc(N3CCCCCC3)c(C=CC(=O)O)c2)cc1
146 to 148 °C | COc1ccc(-c2sc3cccnc3c2OC(C)=O)cc1
148 to 150 °C | CCc1nn(CC2CC2)c2cc(C(=O)Nc3c(Cl)cncc3Cl)ccc12
82 to 83 °C | CON(C)C(=O)Nc1ccc(OCCc2ccc(C)cc2)cc1
98 to 99.5 °C | CSc1ccc(/C=C/C2=CC(=O)C(C)(C)O2)cc1
186 to 189 °C | Cc1cc(-c2cnc(N)c(C(=O)Nc3cccnc3)n2)ccc1F
200 °C | COc1ccc(C(=O)Nc2ccc3ccc(OC4CCN(C)CC4)nc3n2)cc1
105 to 106 °C | COC(=O)c1cccc(-c2cccc(Oc3cccc(Cl)c3Cl)n2)c1
171 to 172 °C | Cc1cc(=O)[nH]c2ccc(OCCCN3CCN(Cc4ccc(C(C)(C)C)cc4)CC3)cc12
93 °C | CNC(=O)N(OC(=O)Oc1ccccc1)c1ccc(Cl)c(Cl)c1
185 °C | CC(=O)OC1Cc2ccccc2N(C(N)=O)c2ccccc21 (stereo not given)
133 to 135 °C | O=C(O)c1c(Cl)ccc([N+](=O)[O-])c1Cl
122 to 126 °C | COc1ccc(Oc2ccc3nc(COc4ccc(CC5SC(=O)NC5=O)cc4)n(C)c3c2)cc1 (stereo not given)
178 to 182 °C | COC(=O)c1ccc2cccc(C#N)c2c1
140 °C | CC(C)(C)OC(=O)[C@@H]1CS[C@H](c2ccccc2)N1C(=O)CNC(=O)Nc1cccc(CC(=O)O)c1
106 to 107 °C | C=C(C)COc1ccc(C(=O)C=Cc2ccc(OC)cc2OC)c(O)c1
167 °C | O=C1CC(C(=O)NC(c2ccccc2)c2ccc(Cl)cc2)Oc2ccc(F)cc21 (single isomer, unassigned; (+))
181 to 182 °C | CCN1c2ncc(COc3cccc(C(=O)O)c3)cc2C(=O)N(C)c2ccc(Cl)nc21
100 to 102 °C | CCOC(=O)c1cc(-c2cc(Br)cc(Br)c2)cnc1C
138 to 139 °C | COc1ccc(CC(=O)N2CCC[C@H]2C(=O)O)cc1
164 to 165 °C | CCCCC(=O)c1c(-c2ccc3c(Br)c(OCC(=O)O)ccc3c2)sc2ccccc12

melting point | Structure (SMILES)
128 to 130 °C | Cc1cc(O)cc(C)c1-c1ccccc1
109 to 111 °C | CC(=O)NNC(COCc1cc(C)cc(C)c1)C1c2ccccc2CCc2ccccc21 (stereo not given)
193 to 196 °C | CC(=O)Nc1cc(C=CN(C)C)c([N+](=O)[O-])cn1
92 °C | COc1ccc(C(O)CNCCc2ccc(OC)c(OC)c2)cc1 (stereo not given)
224 to 225 °C | CC(C(N)=O)c1ccc2c(c1)C(=O)Cc1cc(F)ccc1S2 (stereo not given)
49 to 53 °C | CC(C)[C@H](NC1CCCCC1)C(=O)NCCCC(c1ccc(F)cc1)c1ccc(F)cc1
130 to 133 °C | O=[N+]([O-])c1cc(Cl)ccc1N1CCc2cc(Cl)ccc21
247 to 250 °C | COc1cccc(C(=O)c2sc(NC(=O)c3ccncc3)nc2-c2ccco2)n1
170 °C | COC(=O)C(C)(N)Cc1c[nH]c2ccc(Cl)cc12 (racemic)
121 to 124 °C | CC(C)Oc1ccc(C(=O)n2nc(Nc3cccc(N4CCCCC4)c3)nc2N)cc1
82 to 85 °C | CCOC(=O)C(C)(C)Oc1ccc(C(=O)c2ccccc2)cc1
148 to 150 °C | CC(=O)OC1CSC(Oc2cncc(-c3ccc(C#N)c(Cl)c3)c2)C(OC(C)=O)C1OC(C)=O (stereo not given)
191 to 192 °C | Cc1cc(OCc2cnc(-c3ccc(C(F)(F)F)cc3)nc2C2CC2)ccc1OC(C)(C)C(=O)O
89 to 93 °C | FC(F)(F)c1ccc(-c2cc(C3CC3)cc(Cl)n2)cc1
103 to 104 °C | OCc1conc1-c1ccc(Cl)c(Cl)c1
377 to 379 °C | O=C(O)c1ccc(N2C(=O)c3ccc(C(=O)O)cc3C2=O)cc1
176 to 179 °C | CC1(C)OC(=O)Nc2ccc(-c3ccccc3CC#N)cc21
117 to 118 °C | COC(=O)c1cc2cccc(OCc3cccnc3)c2o1
193 to 195 °C | Cn1cccc1C(=O)C(C#N)C(=O)Nc1ccc([N+](=O)[O-])cc1 (stereo not given)
97.2 to 98.4 °C | CCOC(=O)C1=Cc2cc(S(=O)(=O)Cl)ccc2OC1C(F)(F)F (stereo not given)
172 to 174 °C | C=CC(=O)Oc1ccc(N2C(=O)C(=C(C)C)/C(=C(/C)c3c(C)n(C)c4ccccc34)C2=O)cc1
